According to the NIST ThermoML archive (doi:10.1021/acs.jced.5b00051):
± gives the expanded uncertainty stated by the source.

Assay: molar heat capacity at constant pressure
Details: 101.33 kPa, Liquid, Large sample (1 g) DSC

Compound | molar heat capacity at constant pressure (275.15 K) [J/K/mol] | molar heat capacity at constant pressure (277.15 K) [J/K/mol] | molar heat capacity at constant pressure (279.15 K) [J/K/mol] | molar heat capacity at constant pressure (281.15 K) [J/K/mol] | molar heat capacity at constant pressure (283.15 K) [J/K/mol] | molar heat capacity at constant pressure (285.15 K) [J/K/mol] | molar heat capacity at constant pressure (287.15 K) [J/K/mol] | molar heat capacity at constant pressure (289.15 K) [J/K/mol] | molar heat capacity at constant pressure (291.15 K) [J/K/mol] | molar heat capacity at constant pressure (293.15 K) [J/K/mol] | molar heat capacity at constant pressure (295.15 K) [J/K/mol] | molar heat capacity at constant pressure (297.15 K) [J/K/mol] | molar heat capacity at constant pressure (298.15 K) [J/K/mol] | molar heat capacity at constant pressure (299.15 K) [J/K/mol] | molar heat capacity at constant pressure (301.15 K) [J/K/mol] | molar heat capacity at constant pressure (303.15 K) [J/K/mol] | molar heat capacity at constant pressure (305.15 K) [J/K/mol] | molar heat capacity at constant pressure (307.15 K) [J/K/mol] | molar heat capacity at constant pressure (309.15 K) [J/K/mol] | molar heat capacity at constant pressure (311.15 K) [J/K/mol] | further results
CCCCCCOCCOCCO [2-(2-hexyloxyethoxy)ethanol] | 411.2 ± 6.4 | 412 ± 6.4 | 412.8 ± 6.4 | 413.6 ± 6.4 | 414.4 ± 6.4 | 415.3 ± 6.4 | 416.1 ± 6.4 | 417 ± 6.5 | 417.9 ± 6.5 | 418.7 ± 6.5 | 419.6 ± 6.5 | 420.5 ± 6.5 | 421 ± 6.5 | 421.4 ± 6.5 | 422.3 ± 6.5 | 423.2 ± 6.6 | 424.2 ± 6.6 | 425.1 ± 6.6 | 426 ± 6.6 | 427 ± 6.6 | molar heat capacity at constant pressure (313.15 K): 428 ± 6.6 J/K/mol; molar heat capacity at constant pressure (315.15 K): 428.9 ± 6.6 J/K/mol; molar heat capacity at constant pressure (317.15 K): 429.9 ± 6.7 J/K/mol; molar heat capacity at constant pressure (319.15 K): 430.9 ± 6.7 J/K/mol; molar heat capacity at constant pressure (321.15 K): 431.9 ± 6.7 J/K/mol; molar heat capacity at constant pressure (323.15 K): 432.9 ± 6.7 J/K/mol; molar heat capacity at constant pressure (325.15 K): 433.9 ± 6.7 J/K/mol; molar heat capacity at constant pressure (327.15 K): 434.9 ± 6.7 J/K/mol; molar heat capacity at constant pressure (329.15 K): 436 ± 6.8 J/K/mol; molar heat capacity at constant pressure (331.15 K): 437 ± 6.8 J/K/mol; molar heat capacity at constant pressure (333.15 K): 438 ± 6.8 J/K/mol; molar heat capacity at constant pressure (335.15 K): 439.1 ± 6.8 J/K/mol; molar heat capacity at constant pressure (337.15 K): 440.2 ± 6.8 J/K/mol; molar heat capacity at constant pressure (339.15 K): 441.2 ± 6.8 J/K/mol
CCCOCCOCCO [2-(2-propoxyethoxy)ethanol] | 321.3 ± 5 | 322 ± 5 | 322.6 ± 5 | 323.3 ± 5 | 324 ± 5 | 324.7 ± 5 | 325.4 ± 5 | 326.1 ± 5.1 | 326.8 ± 5.1 | 327.5 ± 5.1 | 328.2 ± 5.1 | 329 ± 5.1 | 329.4 ± 5.1 | 329.7 ± 5.1 | 330.5 ± 5.1 | 331.3 ± 5.1 | 332 ± 5.1 | 332.8 ± 5.2 | 333.6 ± 5.2 | 334.4 ± 5.2 | molar heat capacity at constant pressure (313.15 K): 335.2 ± 5.2 J/K/mol; molar heat capacity at constant pressure (315.15 K): 336 ± 5.2 J/K/mol; molar heat capacity at constant pressure (317.15 K): 336.9 ± 5.2 J/K/mol; molar heat capacity at constant pressure (319.15 K): 337.7 ± 5.2 J/K/mol; molar heat capacity at constant pressure (321.15 K): 338.5 ± 5.2 J/K/mol; molar heat capacity at constant pressure (323.15 K): 339.4 ± 5.3 J/K/mol; molar heat capacity at constant pressure (325.15 K): 340.3 ± 5.3 J/K/mol; molar heat capacity at constant pressure (327.15 K): 341.1 ± 5.3 J/K/mol; molar heat capacity at constant pressure (329.15 K): 342 ± 5.3 J/K/mol; molar heat capacity at constant pressure (331.15 K): 342.9 ± 5.3 J/K/mol; molar heat capacity at constant pressure (333.15 K): 343.8 ± 5.3 J/K/mol; molar heat capacity at constant pressure (335.15 K): 344.7 ± 5.3 J/K/mol; molar heat capacity at constant pressure (337.15 K): 345.6 ± 5.4 J/K/mol; molar heat capacity at constant pressure (339.15 K): 346.5 ± 5.4 J/K/mol
CCCCCCCCOCCOCCOCCO [2-[2-[2-(octyloxy)ethoxy]ethoxy]ethanol] | 563.7 ± 8.7 | 564.5 ± 8.7 | 565.2 ± 8.8 | 566 ± 8.8 | 566.9 ± 8.8 | 567.7 ± 8.8 | 568.6 ± 8.8 | 569.5 ± 8.8 | 570.4 ± 8.8 | 571.3 ± 8.9 | 572.2 ± 8.9 | 573.2 ± 8.9 | 573.7 ± 8.9 | 574.2 ± 8.9 | 575.2 ± 8.9 | 576.2 ± 8.9 | 577.3 ± 8.9 | 578.4 ± 9 | 579.5 ± 9 | 580.6 ± 9 | molar heat capacity at constant pressure (313.15 K): 581.7 ± 9 J/K/mol; molar heat capacity at constant pressure (315.15 K): 582.9 ± 9 J/K/mol; molar heat capacity at constant pressure (317.15 K): 584.1 ± 9 J/K/mol; molar heat capacity at constant pressure (319.15 K): 585.3 ± 9.1 J/K/mol; molar heat capacity at constant pressure (321.15 K): 586.5 ± 9.1 J/K/mol; molar heat capacity at constant pressure (323.15 K): 587.7 ± 9.1 J/K/mol; molar heat capacity at constant pressure (325.15 K): 589 ± 9.1 J/K/mol; molar heat capacity at constant pressure (327.15 K): 590.3 ± 9.1 J/K/mol; molar heat capacity at constant pressure (329.15 K): 591.6 ± 9.2 J/K/mol; molar heat capacity at constant pressure (331.15 K): 592.9 ± 9.2 J/K/mol; molar heat capacity at constant pressure (333.15 K): 594.3 ± 9.2 J/K/mol; molar heat capacity at constant pressure (335.15 K): 595.6 ± 9.2 J/K/mol; molar heat capacity at constant pressure (337.15 K): 597 ± 9.2 J/K/mol; molar heat capacity at constant pressure (339.15 K): 598.4 ± 9.3 J/K/mol
CCCCOCCOCCO [3,6-dioxa-1-decanol] | 351.2 ± 5.4 | 351.9 ± 5.5 | 352.7 ± 5.5 | 353.4 ± 5.5 | 354.2 ± 5.5 | 354.9 ± 5.5 | 355.7 ± 5.5 | 356.5 ± 5.5 | 357.3 ± 5.5 | 358.1 ± 5.5 | 359 ± 5.6 | 359.8 ± 5.6 | 360.2 ± 5.6 | 360.6 ± 5.6 | 361.5 ± 5.6 | 362.4 ± 5.6 | 363.3 ± 5.6 | 364.2 ± 5.6 | 365.1 ± 5.7 | 366 ± 5.7 | molar heat capacity at constant pressure (313.15 K): 366.9 ± 5.7 J/K/mol; molar heat capacity at constant pressure (315.15 K): 367.9 ± 5.7 J/K/mol; molar heat capacity at constant pressure (317.15 K): 368.8 ± 5.7 J/K/mol; molar heat capacity at constant pressure (319.15 K): 369.8 ± 5.7 J/K/mol; molar heat capacity at constant pressure (321.15 K): 370.8 ± 5.7 J/K/mol; molar heat capacity at constant pressure (323.15 K): 371.8 ± 5.8 J/K/mol; molar heat capacity at constant pressure (325.15 K): 372.8 ± 5.8 J/K/mol; molar heat capacity at constant pressure (327.15 K): 373.8 ± 5.8 J/K/mol; molar heat capacity at constant pressure (329.15 K): 374.8 ± 5.8 J/K/mol; molar heat capacity at constant pressure (331.15 K): 375.8 ± 5.8 J/K/mol; molar heat capacity at constant pressure (333.15 K): 376.9 ± 5.8 J/K/mol; molar heat capacity at constant pressure (335.15 K): 377.9 ± 5.9 J/K/mol; molar heat capacity at constant pressure (337.15 K): 379 ± 5.9 J/K/mol; molar heat capacity at constant pressure (339.15 K): 380.1 ± 5.9 J/K/mol
